The values that follow come from ChEMBL document CHEMBL1201862, “PubChem BioAssay data set” (2004).

Each structure is given as a SMILES string.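 Following 48 hours of exposure in 96-well plates, responses at five concentrations were used to interpolate endpoints linearly. Here, GI50 denotes the concentration required for 50% inhibition of growth.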 The source made the active and inactive calls. Rule as the data show it: active = GI50 up to about 1.1 µM and inactive = higher.

Holding throughout (assay): DTP human tumour cell line panel, 48 h
Experiment [1] deals with RPMI-8226.
The test system of experiment [2] is SK-MEL-28.
Experiment [3] deals with IGROV-1.
In experiment [4] the test system is TK-10.
Experiment [5] deals with HL-60.
In experiment [6] the test system is MCF7.
Experiment [7] concerns MDA-MB-231.
Experiment [8] relates to OVCAR-8.
Experiment [9] has as its system SK-MEL-5.
In experiment [10] the test system is MDA-MB-435.
Experiment [11] has as its system EKVX.
Experiment [12] has as its system NCI-H23.
For experiment [13], the system named is HOP-62.
Experiment [14] relates to SF-268.
Experiment [15] relates to CAKI-1.
Experiment [16] relates to NCI-H460.
The subject of experiment [17] is A498.
Experiment [18] deals with HT-29.
Experiment [19] deals with BT-549.
The test system of experiment [20] is SN12C.

A word on the GI50: it is the concentration giving 50% growth inhibition.

As to `C[C@@]12[C@H]3CC[C@@H]1[C@H](O)C(=O)N2CC3`, the GI50 in experiment [1], in experiment [2], in experiment [3], in [4], in experiment [5] and in experiment [6] was > 100 µM (inactive) each time. Also, the GI50 in experiment [7], in [8], in experiment [9], in [10], in experiment [11] and in experiment [12] was > 100 µM (inactive) in each case. The GI50 in experiment [13], in experiment [14], in experiment [15], in [16], in experiment [17] and in experiment [18] was > 100 µM (inactive) throughout.
Turning to `CCOC(=O)CCC(NC(=O)OCc1ccccc1)C(=O)NC(CCC(=O)OCC)C(=O)NC(CCC(=O)OCC)C(=O)NC(CCC(=O)OCC)C(=O)NC(CCC(=O)OCC)C(=O)OCC` (stereo not drawn), the GI50 in experiment [1], in experiment [2], in [3], in experiment [4], in experiment [6] and in experiment [8] was > 100 µM (inactive) throughout. Moreover, the GI50 in experiment [9], in [10], in [11], in experiment [12], in [19] and in [13] was > 100 µM (inactive) in each case. For the same compound, the GI50 in [15], in experiment [20], in [16] and in experiment [18] was > 100 µM (inactive) in each case.
For `O=C1CCCc2cc3c(cc21)CC1(C3)Cc2ccc3c(c2C1)C(=O)CCC3` (stereo not drawn), the GI50 is 7.59 µM (inactive) in [1]; 26.1 µM (inactive) in experiment [2]; 20.5 µM (inactive) in experiment [3]; 23.9 µM (inactive) in [4]; 5.18 µM (inactive) in experiment [5]; 12.2 µM (inactive) in experiment [6]. For the same compound, the GI50 in experiment [7] was 29.2 µM (inactive); in experiment [8], 16.4 µM (inactive); in experiment [9], 2.2 µM (inactive); in [10], 4.91 µM (inactive); in experiment [11] it was 46.7 µM (inactive); in experiment [12], 22.5 µM (inactive). Further, the GI50 in [13] is 67.9 µM (inactive); in [14], 21.9 µM (inactive); in [15], 10.5 µM (inactive); in [20], 23.6 µM (inactive); in experiment [16], 26.5 µM (inactive); in experiment [17], 41.2 µM (inactive). The GI50 in experiment [18] was 16.3 µM (inactive).
Turning to `CCN1C[C@]2(C)CC[C@H](OC)C34C1C([C@H](OC(C)=O)[C@@H]32)[C@@]1(OC)C[C@H](OC)[C@H]2C[C@@H]4[C@@H]1[C@H]2O`, the GI50 in experiment [1], in [2], in [3], in experiment [4], in experiment [5] and in experiment [8] was > 100 µM (inactive) in each case. The GI50 in experiment [9], in experiment [11], in experiment [12], in experiment [13], in experiment [14] and in experiment [15] was > 100 µM (inactive) in each case. The GI50 in experiment [20], in experiment [16], in experiment [17] and in [18] was > 100 µM (inactive) each time.
As for `COc1ccc(/C=C2\CCC(C)(CN(C)C)C2=O)cc1` (stereo not drawn), the GI50 in experiment [1] is 38 µM (inactive); in [2], > 100 µM (inactive); in experiment [3], > 100 µM (inactive); in experiment [4], > 100 µM (inactive); in experiment [5] it was 56.4 µM (inactive); in experiment [8], > 100 µM (inactive). Besides, the GI50 in experiment [9] is > 100 µM (inactive); in experiment [11], > 100 µM (inactive); in [12], > 100 µM (inactive); in [13], > 100 µM (inactive); in experiment [14] it was > 100 µM (inactive); in experiment [15], 18.7 µM (inactive). Besides, the GI50 in experiment [20], in [16], in [17] and in experiment [18] was > 100 µM (inactive) in each case.
For the compound `O=C(O)/C(Cl)=C(Cl)/C=N/NC(=O)c1cc2ccccc2cc1O`, the GI50 in experiment [1] is 6.71 µM (inactive); in experiment [2] it was 29.8 µM (inactive); in experiment [3], 15.5 µM (inactive); in experiment [4] it was 35.5 µM (inactive); in experiment [5] it was 5.42 µM (inactive); in experiment [8], 19.7 µM (inactive). In addition, the GI50 was 9.82 µM (inactive) in experiment [9]; 30.2 µM (inactive) in [11]; 8.57 µM (inactive) in [12]; 36.6 µM (inactive) in [13]; 7.66 µM (inactive) in experiment [14]; 21 µM (inactive) in [15]. In addition, the GI50 is 38.5 µM (inactive) in experiment [20], 21 µM (inactive) in experiment [16], 24.6 µM (inactive) in [17] and 38.6 µM (inactive) in [18].
For the compound `Cc1ccc(/C=C2\CCCC(C(NO)c3ccc(C)cc3)C2=NO)cc1` (stereo not drawn), the GI50 is 22.6 µM (inactive) in experiment [1]; 16.1 µM (inactive) in experiment [2]; > 100 µM (inactive) in experiment [3]; > 100 µM (inactive) in experiment [4]; 19.5 µM (inactive) in [5]; 53 µM (inactive) in experiment [8]. For the same compound, the GI50 is 21.2 µM (inactive) in [9]; 44.4 µM (inactive) in experiment [11]; 24 µM (inactive) in experiment [12]; 59.8 µM (inactive) in experiment [13]; 17.6 µM (inactive) in experiment [14]; 81.8 µM (inactive) in experiment [15]. Also, the GI50 is 20.7 µM (inactive) in experiment [20], 24.7 µM (inactive) in experiment [16], 49.8 µM (inactive) in experiment [17] and 19.5 µM (inactive) in experiment [18].
`N=C1OC(c2ccc3c(c2)OCO3)C(NNS(=O)(=O)c2ccccc2)=C1O` (stereo not drawn): the GI50 was 87.1 µM (inactive) in [1]; > 100 µM (inactive) in experiment [2]; > 100 µM (inactive) in experiment [3]; > 100 µM (inactive) in experiment [4]; > 100 µM (inactive) in [5]; > 100 µM (inactive) in experiment [8]. In addition, the GI50 in experiment [9] was 38.1 µM (inactive); in experiment [11], > 100 µM (inactive); in [12], 52.5 µM (inactive); in experiment [13] it was > 100 µM (inactive); in experiment [14], > 100 µM (inactive); in experiment [15] it was > 100 µM (inactive). Further, the GI50 in experiment [20], in experiment [16], in experiment [17] and in experiment [18] was > 100 µM (inactive) each time.
For `NCC(NC(=O)OCc1ccccc1)C(=O)O` (stereo not drawn), the GI50 in [1], in [2], in experiment [3], in [4], in [5] and in experiment [8] was > 50 µM (inactive) throughout. For the same compound, the GI50 in experiment [9], in experiment [11], in [12], in [13], in experiment [14] and in experiment [15] was > 50 µM (inactive) in each case. The GI50 in [20], in [16], in [17] and in experiment [18] was > 50 µM (inactive) in each case.
For the compound `CC(=O)OCC1OC(n2c(C)c(C(C)=O)c(-c3cccc4ccccc34)c(C#N)c2=S)C(OC(C)=O)C(OC(C)=O)C1OC(C)=O` (stereo not drawn), the GI50 in experiment [2], in experiment [3], in experiment [4], in experiment [5], in experiment [6] and in experiment [7] was > 100 µM (inactive) throughout. For the same compound, the GI50 in [8] was > 100 µM (inactive); in experiment [9] it was 28.7 µM (inactive); in experiment [10], > 100 µM (inactive); in experiment [11], > 100 µM (inactive); in [12], > 100 µM (inactive); in [13], > 100 µM (inactive). Also, the GI50 in [14], in [15], in [20], in [16], in [17] and in experiment [18] was > 100 µM (inactive) throughout.
As for `COC(=O)CCCc1ccc2c(c1)CC1(C2)Cc2cc3c(cc2C1)CCCC3`, the GI50 in experiment [1] was 16 µM (inactive); in [3] it was 44.9 µM (inactive); in experiment [4], > 100 µM (inactive); in experiment [5] it was 12.4 µM (inactive); in experiment [6], 44.6 µM (inactive); in experiment [7], > 100 µM (inactive). The GI50 in experiment [8] is 44.5 µM (inactive); in experiment [9], 19.2 µM (inactive); in experiment [10] it was 13.9 µM (inactive); in [11], 35.2 µM (inactive); in [12], 61.9 µM (inactive); in experiment [13], 34.8 µM (inactive). Moreover, the values for the GI50 in [20], in experiment [17] and in experiment [18] were 40.6 µM (inactive), 41.9 µM (inactive) and 29.6 µM (inactive), respectively.
In the case of `COc1cc2c(c(OC)c1OC)-c1ccc(SC)c(=O)cc1[C@@H](NCc1ccc([N+](=O)[O-])cc1)CC2`, the 50% growth inhibitory concentration (GI50) in experiment [1] was 0.00349 µM (active); in experiment [2] it was 0.00493 µM (active); in experiment [3] it was 0.0371 µM (active); in experiment [4] it was 0.0423 µM (active); in [5], 0.00202 µM (active); in [8], 0.00578 µM (active). Also, the 50% growth inhibitory concentration (GI50) is 0.00421 µM (active) in experiment [9]; 0.0074 µM (active) in [11]; 0.00324 µM (active) in [12]; 0.00741 µM (active) in [13]; 0.00676 µM (active) in experiment [14]; 0.01 µM (active) in [15]. Further, the GI50 in [20] was 0.00738 µM (active); in experiment [16], 0.00318 µM (active); in [17] it was 0.00461 µM (active); in experiment [18], 0.00331 µM (active).
